{"source": "patent US6468983B2", "about": "“RNase L activators and antisense oligonucleotides effective to treat telomerase-expressing malignancies” (The Cleveland Clinic Foundation, priority 1997, dated 2002)", "key": {"[1]": {"system": "U373 human malignant glioma cells", "assay": "TUNEL assay for apoptosis, oligonucleotide plus lipofectamine", "assay_type": "cell-based", "protocol": "(§1) To further determine whether treatment with oligonucleotides induced apoptosis, tumor cells and tissues were stained by the terminal deoxynucleotidyl transferase (TdT)-mediated DUTP nick end labeling (TUNEL) technique using Apo-Tag kit (peroxidase conjugated) (Oncor Inc., Gaithersburg, Md.). The staining of apoptotic cells was done on U373MG cells. Oligonucleotides with lipofectamine was added to the cells every day. The final concentrations were 0.5 micromolar and 8 microgram/ml for oligo and lipofectamine, respectively. Pictures were taken after 3 days of treatment."}, "[2]": {"system": "normal human astrocytes (PIN)", "assay": "Cell viability assay, trypan blue, same protocol on telomerase-negative normal astrocytes", "assay_type": "cell-based", "details": "same protocol as the tumor cells, over the treatment period", "protocol": "The cytotoxic effect of 2-5A activator antisense complexes on tumor cells was determined using the trypan blue dye exclusion assay. Tumor cells were seeded at 10^4 cells/well (0.1 ml) in 96-well flat-bottomed plates and incubated overnight at 37° C. Then, oligonucleotides (5 micromolar) in water were added into cells every 12 hr. On successive days the cells were harvested and 25% of the total was examined microscopically to determine the percentage of viable cells, another 25% was replated to continue treatment and the remaining 50% were used for the TRAP assay."}, "U251-MG cells": {"system": "U251-MG cells", "assay": "TUNEL assay on cultured cells treated with spA4-anti-hTR", "assay_type": "cell-based, human", "details": "treated cells fixed and stained"}, "U373-MG cells": {"system": "U373-MG cells", "assay": "Combination with cisplatin in vitro, MTT assay", "assay_type": "cell-based, human", "details": "treatment with spA4-anti-hTR", "protocol": "FIG. 17. Effect of combining 2-5A-anti-hTR with cisplatin on malignant glioma U373-MG cells in vitro and in vivo. FIG. 17A Tumor cells were treated with 2-5A-anti-hTR (0.5 μM, every 24 hr) mixed with Lipofectamine (1.0 μl/25 μl DMEM) or cisplatin for three days, and their viability was determined by MTT assay. Values represent the means±S.D. FIG. 17B Tumors from U373-MG cells (1.0×10^6 cells in 0.05 ml serum free DMEM and 0.05 ml matrigel) were established subcutaneously in nude mice. After four or five weeks when the tumors were approximately 60-100 mm^3, spA4-anti-hTR (5 nmol/20 μl sterile distilled water) were administrated directly into the tumors daily for 7 days. Cisplatin (1.0 or 5.0 mg/kg/mice) was administered intraperitoneally on Days 1, 3 and 5. Five Mice were used in each treatment group. Tumor volume was then determined using calipers, and the mean sizes ±S.D. were calculated.\nTo determine if the anti-malignant glioma cell activity of chemotherapeutic agent, cisplatin, could be enhance with SpA4-anti-hTR, a combination therapy protocol was devised (FIG. 17). The point at which 50% cell death was achieved was using 1 microgram per ml of cisplatin plus 0.5 micromolar of SpA4-anti-hTR; whereas in the absence of SpA4-anti-hTR, >10 micrograms per ml of cisplatin were required to achieve 50% cell death (FIG. 17). […] Furthermore, we determined the effect of combining 2-5A-anti-hTR with cisplatin on U373-MG cells in vitro and in vivo. […] The IC50 of cisplatin was reduced from 10.0 to 1.0 μg/ml by combination of spA4-anti-hTR."}, "U251-MG tumors": {"system": "U251-MG tumors", "assay": "In situ end-labeling (TUNEL) of DNA in subcutaneous xenografts", "assay_type": "in vivo, nude mice", "details": "5 nmol every day for 7 days", "from_the_text": "FIG. 14. In situ end-labeling of DNA in subcutaneous xenografts of nude mice. After treatment with oligonucleotides (5 nmol, every day) for 7 days, the mice were sacrificed and the subcutaneous mass was removed, frozen, and sectioned on a cryostat. The tumor specimens from U251-MG cells were counterstained by hematoxylin and eosin following the TUNEL technique. Arrows show representatives of tumor cells positive for DNA fragmentation (×400). (above) spA4-anti-(M6)hTR, 7 Day; (below) spA4-anti-hTR, 7 Day.\nas §1, with “Pictures were taken after 3 days of treatment.” left out\nU251-MG and U373 MG tumor cells (1.0×10^6 cells in 0.1 ml serum free DMEM and 0.1 ml Matrigel) were injected subcutaneously into the right flank of 8-12 week-old female Balb/c nude mice (5 mice for each treatment group). Tumor growth was monitored using calipers every 2- or 3-days. Tumor volume (V) was calculated as (L×W^2)/2, where L=length (mm) and W=width (mm). […]"}, "[3]": {"system": "human melanoma cell line, SK-MEL-2", "assay": "Viable cell count, daily oligonucleotide plus lipofectamine", "assay_type": "cell-based", "details": "SK-MEL-2, 0.5 micromolar daily plus lipofectamine", "protocol": "(§2) Cells (10,000/well) were seeded on 96 well tissue culture dishes, and treated every 24 hours. A 10× concentrated mixture of oligonucleotides plus lipofectamine in water was prepared containing 5 micromolar oligonucleotide and 80 microgram per ml lipofectamine™ (Gibco/BRL) and incubated for 10 min at room temperature. Media was removed from the cells, 10 microliters of the oligonucleotide/lipofectamine mixture was added directly to the cultured cells followed by 90 microliters of media plus serum. The media was changed with oligonucleotide/lipofectamine treatments every 24 h. Cells were passaged when the control cells reached confluency, and viable cells were counted after staining with Trypan Blue (GibcoBRL). The numbers of cells treated only with lipofectamine were used as the control to calculate percentages of cell survival or viability.\n(§3) Similarly, the viability of the breast cancer cell line, MDA468, was reduced by 64% by SpA4-anti-hTR, while the control oligonucleotides reduced cell viability by <20% (FIG. 6). Viability of the human melanoma cell line, A375, was reduced by 43% in three days by SpA4-anti-hTR, while the control oligonucleotides had no effect (FIG. 7). […] Viability of a third human melanoma cell line, SK-MEL-5, was reduced by 43% by SpA4-anti-hTR, with minimal effects by the control oligonucleotides (FIG. 7). Two prostate tumor cells lines, PC3 and DU145, were suppressed by SpA4-anti-hTR treatments by 45% and 60%, respectively (FIGS. 6 and 10). […] The viability of the malignant glioma cell line, U373, was reduced by about 60% in 3 days, with intermediate effects by the control oligonucleotides (FIG. 6). Therefore, the proliferation and survival of every tumor cell type tested was inhibited by SpA4-anti-hTR. […] In contrast, there was no apoptosis detected in the control cells treated with lipofectamine without oligonucleotide (FIG. 12 upper panel)."}, "[4]": {"system": "human melanoma cell line, A375", "assay": "Viable cell count, daily oligonucleotide plus lipofectamine", "assay_type": "cell-based", "details": "A375, 0.5 micromolar daily plus lipofectamine", "protocol": "as §2, §3"}, "[5]": {"system": "human melanoma cell line, SK-MEL-5", "assay": "Viable cell count, daily oligonucleotide plus lipofectamine", "assay_type": "cell-based", "details": "SK-MEL-5, 0.5 micromolar daily plus lipofectamine", "protocol": "as §2, §3"}}, "note": "Entries after “also recorded” stand apart in the source; their conditions may differ.", "data": [{"substance": "Sp5′A2′p(5′A2p)3-[(Bu)p]2-5′GCG CGG GGA GCA AAA GCA C3′-3′T5′ (antisense GCGCGGGGAGCAAAAGCAC; 5'-thiophosphate 2-5A tetramer, butanediol linkers, 3'-3'T cap, chemistry not fully specified) [spA4-anti-hTR, 2-5A tetramer linked by butanediol linkers to 19-mer antisense against human telomerase RNA nucleotides 76 to 94]", "values": [{"measurement": "apoptosis by TUNEL (in words)", "setting": "[1]; 0.5 micromolar daily plus lipofectamine for 3 days", "value": "apoptosis was clearly visible"}, {"measurement": "apoptosis by TUNEL assay for DNA breakage (in words)", "setting": "[1]; over time of treatment", "value": "time-dependent increase in apoptotic cells; also recorded: caused apoptosis"}, {"measurement": "reduction in cell viability", "setting": "[2]", "value": "less than 5%"}, {"measurement": "reduction in cell viability", "setting": "[2]; listed as SpA4-anti-hTR", "value": "2-3%"}, {"measurement": "apoptotic cell death by TUNEL (in words)", "setting": "U251-MG cells", "value": "increased number of darkly staining nuclei"}, {"measurement": "susceptibility of U373-MG cells to cisplatin (in words)", "setting": "U373-MG cells", "value": "increased the susceptibility"}, {"measurement": "apoptotic cells observed in tumors (TUNEL)", "setting": "U251-MG tumors", "value": "many apoptotic cells"}, {"measurement": "effect on growth/viability (in words)", "setting": "[3]", "value": "specifically suppressed growth"}, {"measurement": "survival", "setting": "[3]", "value": "< 0.1", "unit": "%"}, {"measurement": "effect on growth/viability (in words)", "setting": "[4]", "value": "specifically suppressed growth"}, {"measurement": "reduction in viability", "setting": "[4]; three days", "value": 43, "unit": "%"}, {"measurement": "effect on growth/viability (in words)", "setting": "[5]", "value": "specifically suppressed growth"}, {"measurement": "reduction in viability", "setting": "[5]", "value": 43, "unit": "%"}]}]}
